Data from patent US20110237629A1, “AMINO ACID ESTER PRODRUGS AND THE USE THEREOF” (Bayer Schering Pharma Aktiengesellschaft, priority 2008, published 2011).
Where a name gives a salt, the structure may show the parent alone.

Experiments:
Format in all cases: physicochemical
[1] = Stability in buffer at various pH values
Protocol: 0.3 mg of the test substance is weighed into a 2 ml HPLC vial and 0.5 ml of acetonitrile or acetonitrile/DMSO (9:1) is added. The substance is dissolved by putting the sample vessel in an ultrasonic bath for about 10 seconds. Then 0.5 ml of the respective buffer solution is added, and the sample is again treated in the ultrasonic bath.
(Buffer) solutions employed:
pH 4: 1 liter of Millipore water is adjusted to pH 4.0 with 1 N hydrochloric acid;
pH 5: 0.096 mol of citric acid and 0.2 mol of sodium hydroxide ad 1 liter of water;
pH 7.4: 90.0 g of sodium chloride, 13.61 g of potassium dihydrogen phosphate and 83.35 g of 1 N sodium hydroxide solution are made up to 1 liter with water; this solution is then further diluted 1:10 with Millipore water.
pH 8: 0.013 mol of borax and 0.021 mol of hydrochloric acid ad 1 liter of water.
5 μl portions of the test solution are analyzed by HPLC for their content of unchanged test substance, and of basic mother substance of the formula (A) formed, every hour over a period of 24 hours at 37° C. The percentage areas of the appropriate peaks are used for quantification.
HPLC method for example 1:
(§1) Agilent 1100 with DAD (G1315B), binary pump (G1312A), autosampler (G1329A), column oven (G1316A), thermostat (G1330B); column: Kromasil 100 C18, 125 mm×4 mm, 5 μm; column temperature: 30° C.; eluent A: water+5 ml perchloric acid/liter, eluent B: acetonitrile; gradient: 0 min 90% A→2.0 min 70% A→18.0 min 70% A 20.0 min 10% A→21.0 min 10% A→23.0 min 90% A→26.0 min 90% A; flow rate: 2.0 ml/min;
HPLC method for example 3:
as §1, with “(G1314A),” for “(G1315B),”, “(G1330A);” for “(G1330B);”, “64%” for “70%”, “64% A→20.0” for “70% A 20.0”, “ml/min UV detection: 294 nm.” for “ml/min;”
HPLC method for example 11:
as §1, with “ml of” for “ml”, “64%” for “70%”, “64% A→20.0” for “70% A 20.0”, “ml/min; UV detection: 294 nm.” for “ml/min;”
HPLC method for example 14:
Agilent 1100 with DAD (G1315B), binary pump (G1312A), autosampler (G1329A), column oven (G1316A), thermostat (G1330B); column: Kromasil 100 C18, 250 mm×4 mm, 5 μm; column temperature: 30° C.; eluent A: water+5 ml of perchloric acid/liter, eluent B: acetonitrile; gradient: 0 min 90% A→7.0 min 52% A→18.0 min 52% A→20.0 min 10% A→21.0 min 10% A→23.0 min 90% A -4 26.0 min 90% A; flow rate: 2.0 ml/min; UV detection: 288 nm.
HPLC method for example 18:
Agilent 1100 with DAD (G1315A), binary pump (G1312A), autosampler (G1329A), column oven (G1316A), thermostat (G1330A); column: Kromasil 100 C18, 125 mm×4 mm, 5 μm; column temperature: 30° C.; eluent A: water+5 ml of perchloric acid/liter, eluent B: acetonitrile; gradient: 0 min 90% A→6.0 min 61% A→18.0 min 61% A→20.0 min 10% A→21.0 min 10% A→23.0 min 90% A→26.0 min 90% A; flow rate: 2.0 ml/min; UV detection: 294 nm.
The ratios of the peak areas (F) at the respective time points in relation to the peak areas at the starting time are shown in Table 3 for representative exemplary embodiments: […]

[2] = Determination of the solubility (suspension shaken 24 h at room temperature, HPLC of supernatant); conditions: thermodynamic from solid
Protocol: The test substance is suspended in water or dilute hydrochloric acid (pH 4) or in 5% strength aqueous dextrose solution. This suspension is shaken at room temperature for 24 h. After ultracentrifugation at 224 000 g for 30 min, the supernatant is diluted with DMSO and analysed by HPLC. A two-point calibration plot of the test compound in DMSO is used for quantification.
Agilent 1100 with DAD (G1315A), quat. Pump (G1311A), autosampler CTC HTS PAL, degasser (G1322A) and column thermostat (G1316A); column: Phenomenex Gemini C18, 5 μm, 50 mm×2 mm; temperature: 40° C.; eluent A: water/phosphoric acid pH 2, eluent B: acetonitrile; flow rate: 0.7 ml/min; gradient: 0-0.5 min 85% A, 15% B; ramp 0.5-3 min 10% A, 90% B; 3-3.5 min 10% A, 90% B; ramp 3.5-4 min 85% A, 15% B; 4-5 min 85% A, 15% B.
Agilent 1100 with DAD (G1315A), quat. pump (G1311A), autosampler CTC HTS PAL, degasser (G1322A) and column thermostat (G1316A); column: VDSoptilab Kromasil 100 C18, 3.5 μm, 60 mm×2.1 mm; temperature: 30° C.; eluent A: water+5 ml of perchloric acid/liter, eluent B: acetonitrile; flow rate: 0.75 ml/min; gradient: 0-0.5 min 98% A, 2% B; ramp 0.5-4.5 min 10% A, 90% B; 4.5-6 min 10% A, 90% B; ramp 6.5-6.7 min 98% A, 2% B; 6.7-7.5 min 98% A, 2% B.
The solubilities of representative exemplary embodiments in dilute hydrochloric acid (pH 4) are shown in Table1: […]

[3] = as above; conditions: 0.1 M hydrochloric acid, simulated gastric fluid, thermodynamic from solid
[4] = saline or isotonic, 5% strength aqueous dextrose solution

Compound	% test substance after 4 h [F(t = 4 h) × 100/F(t = 0 h)] ([1]; pH 4, 37° C.) [%]	% test substance after 24 h [F(t = 24 h) × 100/F(t = 0 h)] ([1]; pH 4, 37° C.) [%]	% test substance after 4 h [F(t = 4 h) × 100/F(t = 0 h)] ([1]; pH 7.4, 37° C.) [%]	% test substance after 24 h [F(t = 24 h) × 100/F(t = 0 h)] ([1]; pH 7.4, 37° C.) [%]	solubility at 24 h [2, 4] [µg/mL]	also measured
N#Cc1c(N)nc(SCc2coc(-c3ccc(Cl)cc3)n2)c(C#N)c1-c1ccc(OC[C@@H](COC(=O)CN)OC(=O)CN)cc1 [Example 3, (2S)-3-{4-[2-Amino-6-({[2-(4-chlorophenyl)-1,3-oxazol-4-yl]methyl}sulphanyl)-3,5-dicyanopyridin-4-yl]phenoxy}propane-1,2-diyl bis(aminoacetate) dihydrochloride]	99	99	93	67		
N#Cc1c(N)nc(SCc2coc(-c3ccc(Cl)cc3)n2)c(C#N)c1-c1ccc(OC[C@H](O)CO)cc1 [Example 8A, 2-Amino-6-({[2-(4-chlorophenyl)-1,3-oxazol-4-yl]methyl}sulfanyl)-4-(4-{[(2R)-2,3-dihydroxypropyl]oxy}phenyl)pyridine-3,5-dicarbonitrile, reference compound]					< 1.2	solubility at 24 h [3]: < 0.1 µg/mL
C[C@@H](N)C(=O)OC[C@H](COc1ccc(-c2c(C#N)c(N)nc(SCc3coc(-c4ccc(Cl)cc4)n3)c2C#N)cc1)OC(=O)[C@@H](C)N [Example 9, (2S)-3-{4-[2-Amino-6-({[2-(4-chlorophenyl)-1,3-oxazol-4-yl]methyl}sulfanyl)-3,5-dicyanopyridin-4-yl]phenoxy}propane-1,2-diyl(2R,2′R)-bis(2-aminopropanoate)dihydrochloride]						solubility at 24 h ([2]; aqueous buffer, dilute hydrochloric acid (pH 4)): 535 µg/mL
CC(C)[C@H](N)C(=O)OC[C@@H](COc1ccc(-c2c(C#N)c(N)nc(SCc3coc(-c4ccc(Cl)cc4)n3)c2C#N)cc1)OC(=O)[C@@H](N)C(C)C [Example 10, (2R)-3-{4-[2-Amino-6-({[2-(4-chlorophenyl)-1,3-oxazol-4-yl]methyl}sulphanyl)-3,5-dicyanopyridin-4-yl]phenoxy}propane-1,2-diyl(2S,2′S)-bis(2-amino-3-methylbutanoate)-dihydro-chloride]					> 500	
C[C@H](N)C(=O)OC[C@@H](COc1ccc(-c2c(C#N)c(N)nc(SCc3coc(-c4ccc(Cl)cc4)n3)c2C#N)cc1)OC(=O)[C@H](C)N [Example 11, (2R)-3-{4-[2-Amino-6-({[2-(4-chlorophenyl)-1,3-oxazol-4-yl]methyl}sulphanyl)-3,5-dicyanopyridin-4-yl]phenoxy}propane-1,2-diyl(2S,2′S)-bis(2-aminopropanoate)dihydrochloride]	96	96	84	44		
N#Cc1c(N)nc(SCc2coc(-c3ccc(Cl)cc3)n2)c(C#N)c1-c1ccc(OC[C@@H](COC(=O)[C@@H](N)CCCCN)OC(=O)[C@@H](N)CCCCN)cc1 [Example 13, (2S)-3-{4-[2-Amino-6-({[2-(4-chlorophenyl)-1,3-oxazol-4-yl]methyl}sulphanyl)-3,5-dicyanopyridin-4-yl]phenoxy)propane-1,2-diyl(2S,2′S)-bis(2,6-diaminohexanoate)dihydrochloride]					710	
N#Cc1c(N)nc(SCc2coc(-c3ccc(Cl)cc3)n2)c(C#N)c1-c1ccc(OC[C@@H](COC(=O)CCCN)OC(=O)CCCN)cc1 [Example 14, (2S)-3-{4-[2-Amino-6-({[2-(4-chlorophenyl)-1,3-oxazol-4-yl]methyl}sulphanyl)-3,5-dicyanopyridin-4-yl]phenoxy}propane-1,2-diyl bis(4-aminobutanoate)dihydrochloride]	97	92	93	74	540	
N#Cc1c(N)nc(SCc2coc(-c3ccc(Cl)cc3)n2)c(C#N)c1-c1ccc(OC[C@@H](COC(=O)CCCCCN)OC(=O)CCCCCN)cc1 [Example 15, (2S)-3-{4-[2-Amino-6-({[2-(4-chlorophenyl)-1,3-oxazol-4-yl]methyl}sulphanyl)-3,5-dicyanopyridin-4-yl]phenoxy}propane-1,2-diyl bis(6-aminohexanoate) dihydrochloride]					830	
CC(C)[C@H](N)C(=O)OC[C@H](COc1ccc(-c2c(C#N)c(N)nc(SCc3coc(-c4ccc(Cl)cc4)n3)c2C#N)cc1)OC(=O)[C@@H](N)C(C)C [Example 16, (2S)-3-{4-[2-Amino-6-({[2-(4-chlorophenyl)-1,3-oxazol-4-yl]methyl}sulphanyl)-3,5-dicyanopyridin-4-yl]phenoxy}propane-1,2-diyl(2S,2′S)-bis(2-amino-3-methylbutanoate)bis(trifluoroacetic acid) salt]					250	
CC(C)C[C@H](N)C(=O)OC[C@H](COc1ccc(-c2c(C#N)c(N)nc(SCc3coc(-c4ccc(Cl)cc4)n3)c2C#N)cc1)OC(=O)[C@@H](N)CC(C)C [Example 17, (2S)-3-{4-[2-Amino-6-({[2-(4-chlorophenyl)-1,3-oxazol-4-yl]methyl}sulphanyl)-3,5-dicyanopyridin-4-yl]phenoxy}propane-1,2-diyl(2S,2′S)-bis(2-amino-4-methylpentanoate)bis(trifluoroacetic acid) salt]					330	
C[C@@H](O)[C@H](N)C(=O)OC[C@H](COc1ccc(-c2c(C#N)c(N)nc(SCc3coc(-c4ccc(Cl)cc4)n3)c2C#N)cc1)OC(=O)[C@@H](N)[C@@H](C)O [Example 18, (2S)-3-{4-[2-Amino-6-({[2-(4-chlorophenyl)-1,3-oxazol-4-yl]methyl}sulfanyl)-3,5-dicyanopyridin-4-yl]phenoxy}propane-1,2-diyl(2S,3R,2′S,3′R)-bis(2-amino-3-hydroxybutanoate)bis(trifluoroacetic acid) salt]	100	95	95	72	240	
